This is an account of results in article PMC8910629, “Design, Synthesis, and Anticancer Activity of a Selenium-Containing Galectin-3 and Galectin-9N Inhibitor” (International Journal of Molecular Sciences, 2022).

One assay concerns the target T1, Gal-9N^CRD (Homo sapiens, UniProt O00182).
T1 construct: Gal-9N^CRD (amino acid residues 1–148) were cloned into the vector pETM11; polyHis-tag (TEV-cleavable, from pETM11) (N); made in house; host or cells: Escherichia coli BL21(DE3)GOLD
The experiment in a line: Isothermal titration calorimetry with Gal-9N CRD. Type of assay: binding. The conditions noted are these: ITC. The method, then: (§1) The two proteins were cloned into pETM11 expression vector with a N-terminal polyHis-tag that is removable by TEV protease. The recombinant vectors pETM11-gal3^CRD and pETM11-gal9^CRD were used to transform E. coli BL21(DE3)GOLD cells and a single colony was grown overnight at 37 °C in 20 mL of LB medium. In total, 10 mL of the saturated cultures were transferred in 1 L of LB medium and grown at 37 °C to 0.8 OD 600 nm before induction with IPTG (0.5 mM). The inductions were kept for 16 and for 3 h at 22 °C in the expression of Gal-3^CRD and Gal-9N^CRD, respectively. The cells were harvested by centrifugation, re-suspended in 30 mL of lysis buffer (20 mM NaP, 500 mM NaCl, 10 mM imidazole pH 7.0 for Gal-3^CRD and pH 7.5 Gal-9N^CRD), and sonicated. […] Elution was carried out with 300 mM imidazole. Fractions containing the recombinant protein were, finally, applied onto a Superdex 75 10/300 column (GE Healthcare), connected to an AKTA system (GE Healthcare) pre-equilibrated in 20 mM NaP, 150 mM NaCl pH 7.0 for the purification of Gal-3^CRD and pH 7.5 for Gal-9N^CRD.
(§2) The purified proteins were used to perform interaction studies. […] Before all titrations, molecules were dissolved in 20 mM NaP, 150 mM NaCl pH 7.0 (when the molecules were assayed against Gal-3^CRD) or pH 7.5 (for Gal-9N^CRD). The sample cell was filled with 280 μL of Gal-3^CRD or Gal-9N^CRD. Molecules were injected in a volume of 0.2 μL for the first injection and 1 μL for the next 39 injections using an injection interval of 150 s. The control experiment, obtained by injection of the same amount of each molecule in buffer solution, was subtracted to correct for heat production upon molecules dilution. All data were analyzed and fitted using the Microcal Origin version 7.0 software package. Binding enthalpy, dissociation constants, and stoichiometry were determined by fitting the data using a one-set-of-site-binding model.
A general note: ITC needs no label: the signal is the heat of the interaction.

For a further assay, the system named is galectins. The conditions noted are these: cited from earlier work.
For a further assay, the system named is Gal-3. The conditions noted are these: cited from earlier work.
The next assay concerns Gal-1. Also noted: method as in PMID 27356186. The conditions noted are these: cited from earlier work.
The subject of the next assay is tumor cell proliferation. Also noted: method as in doi:10.1039/D1QO00045D. The conditions noted are these: even at 2 mM concentration; cited from earlier work.
Assay [1] deals with WM266 cells. The experiment in a line: Wound healing scratch assay. Type of assay: cell-based, human. The method, then:
Analysis of cell migration in vitro has been carried out by using the wound healing scratch assay. WM266 cells were grown until they reached a confluent monolayer. After, they were linearly scratched with a pipette tip to generate a cell-free space. […] The area related to each incision was photographed at the time 0, 24, and 48 h using a phase contrast optical microscope with a 10× magnification (Zeiss). The distance between the edges of the incisions was measured by AxioVision Rel. 4.8 software and its mean value was determined as follows: wound closure (%) = 1 − (wound width tx/wound width t0) × 100. Bars depict mean ± SE of three independent experiments.

The next assay deals with T2, Gal-3^CRD (Homo sapiens, UniProt P17931).
T2 construct: The genes encoding Gal-3^CRD (amino acid residues 112–250); polyHis-tag (TEV-cleavable, from pETM11) (N); made in house; host or cells: Escherichia coli BL21(DE3)GOLD
The experiment in a line: Isothermal titration calorimetry with Gal-3 CRD. The conditions noted are these: ITC, 298 K. It counts as binding. The method, then:
as §1, §2

The next assay relates to HuVec cells. The experiment in a line: Angiogenesis (capillary tube formation) assay. The conditions noted are these: SeDG at 2.5 mM. Type of assay: cell-based, human.
The test system of assay [2] is WM266 cells. The assay is described as follows: Transwell invasion assay. It counts as cell-based, human. The conditions noted are these: 24 h, SeDG.
Description: To analyze cell invasion, the surface of a filter membrane of a transwell insert was coated with extracellular matrix (ECL) (Millipore). Cells (5 × 10^4) suspended in 100 μL of serum-free medium were incubated with various concentrations of molecules and successively they were seeded onto the upper compartment of the transwell, whereas the lower chambers were filled with medium containing 10% FCS [65]. After 24 h, the cells were fixed with 10% formalin and stained with crystal violet. The remaining cells in the upper side of the transwell were removed and cells on the undersurface of the filters, the invaded cells, were visualized and counted from six randomly selected fields (10× magnification) under a phase-contrast microscope with AxioVision Rel.

Values joined by “and” are separate entries in the source; they are usually repeats but may differ in a detail not shown here. Equal values may be shown once.

T1 sequence (O00182 1-148): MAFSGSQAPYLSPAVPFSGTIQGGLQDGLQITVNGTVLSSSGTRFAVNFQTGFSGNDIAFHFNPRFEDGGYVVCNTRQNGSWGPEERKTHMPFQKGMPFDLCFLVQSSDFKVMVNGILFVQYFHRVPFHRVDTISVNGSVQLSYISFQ
Description for HuVec cells: Angiogenesis assay was performed by using “In Vitro Angiogenesis Assay Kit” (Merck, Burlington, MA, USA). Briefly, 100 μL of ECL were plated in a pre-cooled 96-well plate and incubated for 1 h at 37 °C. 10,000 cells (HuVec), suspended in EGM-2 [66], incubated with digalactosyl selenides, and seeded onto solidified matrix, according to manufacturer’s instructions. After 5–6 h of incubation at 37 °C, the tube formation was examined by means of a phase contrast optical microscope (Axiovert 200 Zeiss) at 10× magnification and the branch point number was calculated from 3 random fields per each treatment.

Take `OC[C@H]1O[C@@H](O[C@H]2[C@H](O)[C@@H](O)C(O)O[C@@H]2CO)[C@H](O)[C@@H](O)[C@H]1O` (mixture of isomers) [lactose]: the “binding of lactose (functional integrity of protein)” value on Gal-9N^CRD (Figure S2) was “able to bind lactose”. The “binding affinities to galectins” value in the assay on galectins was “high micromolar range”.

As for `CC(=O)N[C@H]1C(O)O[C@H](CO)[C@@H](O[C@@H]2O[C@H](CO)[C@H](O)[C@H](O)[C@H]2O)[C@@H]1O` (some centres unmarked) [LacNAc, N-acetyllactosamine], the “binding affinities to galectins” value in the assay on galectins is on record as “high micromolar range”.

`OC[C@H]1O[C@@H](S[C@@H]2O[C@H](CO)[C@H](O)[C@H](n3cc(-c4cccc(F)c4)nn3)[C@H]2O)[C@H](O)[C@@H](n2cc(-c3cccc(F)c3)nn2)[C@H]1O` [TD139]: the binding affinity entry with Gal-3 and in the assay with Gal-1 was “nanomolar affinity” throughout.

Take `OC[C@H]1O[C@@H](S[C@@H]2O[C@H](CO)[C@H](O)[C@H](O)[C@H]2O)[C@H](O)[C@@H](O)[C@H]1O` [TDG, β-D-galactopyranosyl-(1-1)-thio-β-D-galactopyranoside]: the affinity to galectins result with galectins is given as “same affinity to galectins as lactose”.

By Kd is commonly meant a measure of binding affinity in units of concentration. With digalactosyl selenide [SeDG], the “effect on tumor cell proliferation” value with tumor cell proliferation is recorded as “unable to affect tumor cell proliferation”. On Gal-9N^CRD (298 K), the “n (stoichiometry)” value is on record as 1.01 ± 0.05, the ΔH is -5.64 ± 0.36 kcal/mol and the “−TΔS” value was -1.46 kcal/mol. The Kd at Gal-9N^CRD (298 K, pH 7.5) was ~20 µM and 22.4 µM. Moreover, the wound closure entry in the assay with WM266 cells [1] (WM266, SeDG at 1 and 2.5 mM, 24 and 48 h, vs untreated) is “decreased the wound closure at all used concentrations and time intervals”. In addition, at Gal-3^CRD, the “n (stoichiometry)” value is reported as 1.09 ± 0.05, the ΔG is -6.31 kcal/mol, the ΔH was -4.32 ± 0.27 kcal/mol and the “−TΔS” value was -1.99 kcal/mol. The molecule further displayed a dissociation constant (Kd) at Gal-3^CRD (pH 7.0) of 20.2 ± 2.2 µM. The “change of capillary tube formation” value in the assay with HuVec cells was “non-statistically significant change”. Further, the “WM266 invasion through extracellular matrix” value in the assay with WM266 cells [2] is “able to reduce the cells invasion but only at millimolar concentrations”.

B1: Gal-3^CRD: recombinant carbohydrate recognition domain of galectin 3 (residues 112–250), used as cell motility stimulator (protein, UniProt P17931 112-250, looked up, fragment)
chain: GPLIVPYNLPLPGGVVPRMLITILGTVKPNANRIALDFQRGNDVAFHFNPRFNENNRRVIVCNTKLDNNWGREERQSVFPFESGKPFKIQVLVEPDHFKVAVNDAHLLQYNHRVKKLNEISKLGISGDIDLTSASYTMI
modifications: carbohydrate recognition domain
notes: recombinant carbohydrate recognition domain of galectin 3 (residues 112–250), used as cell motility stimulator
Consider B1, for which the “cell migration (wound closure) vs control” value in the assay on WM266 cells [1] (WM266, 50 µM Gal-3^CRD) was “migrate more than in the control”.
